Laboratory results from BindingDB's records for doi:10.1016/s0960-894x(03)00532-8 (British Biotech Pharmaceuticals, 2003).

molecular target: Peptide deformylase (Escherichia coli) (UniProt P0A6K3); assay: Inhibition against Escherichia coli peptide deformylase
Sequence (P0A6K3 whole entry, looked up): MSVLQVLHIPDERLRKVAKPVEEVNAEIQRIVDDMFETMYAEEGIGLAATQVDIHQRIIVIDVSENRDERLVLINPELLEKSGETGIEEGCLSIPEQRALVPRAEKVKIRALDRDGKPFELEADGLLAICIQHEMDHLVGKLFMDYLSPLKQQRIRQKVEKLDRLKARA

Structure (SMILES) | IC50
CCCC[C@@H](C(=O)N[C@H](C(=O)N(C)C)C(C)(C)C)C(C)N(O)C=O (stereo partly drawn) [(R)-2-[1-(Formyl-hydroxy-amino)-ethyl]-hexanoic acid ((S)-1-dimethylcarbamoyl-2,2-dimethyl-propyl)-amide] | 600 nM
CCC[C@H](CN(O)C=O)C(=O)N[C@H](C(=O)N(C)C)C(C)(C)C [(R)-2-[(Formyl-hydroxy-amino)-methyl]-pentanoic acid ((S)-1-dimethylcarbamoyl-2,2-dimethyl-propyl)-amide] | 50 nM
CC#CC[C@H](CN(O)C=O)C(=O)N[C@H](C(=O)N(C)C)C(C)(C)C [(R)-2-[(Formyl-hydroxy-amino)-methyl]-hex-4-ynoic acid ((S)-1-dimethylcarbamoyl-2,2-dimethyl-propyl)-amide] | 30 nM
CN(C)C(=O)[C@@H](NC(=O)[C@H](CC1CCCCC1)CN(O)C=O)C(C)(C)C [(S)-2-[(R)-2-Cyclohexylmethyl-3-(formyl-hydroxy-amino)-propionylamino]-3,3,N,N-tetramethyl-butyramide] | 6 nM
CN(C)C(=O)[C@@H](NC(=O)[C@@H](CN(O)C=O)CN1CCCCC1)C(C)(C)C [(S)-2-{(R)-2-[(Formyl-hydroxy-amino)-methyl]-3-piperidin-1-yl-propionylamino}-3,3,N,N-tetramethyl-butyramide] | > 1000 nM
CC(C)CC[C@H](CN(O)C=O)C(=O)N[C@H](C(=O)N(C)C)C(C)(C)C [(R)-2-[(Formyl-hydroxy-amino)-methyl]-5-methyl-hexanoic acid ((S)-1-dimethylcarbamoyl-2,2-dimethyl-propyl)-amide] | 20 nM
C=CCC[C@H](CN(O)C=O)C(=O)N[C@H](C(=O)N(C)C)C(C)(C)C [(R)-2-[(Formyl-hydroxy-amino)-methyl]-hex-5-enoic acid ((S)-1-dimethylcarbamoyl-2,2-dimethyl-propyl)-amide] | 20 nM
C=CC[C@H](CN(O)C=O)C(=O)N[C@H](C(=O)N(C)C)C(C)(C)C [(R)-2-[(Formyl-hydroxy-amino)-methyl]-pent-4-enoic acid ((S)-1-dimethylcarbamoyl-2,2-dimethyl-propyl)-amide] | 30 nM
CCCCCCCC[C@H](CN(O)C=O)C(=O)N[C@H](C(=O)N(C)C)C(C)(C)C [(R)-2-[(Formyl-hydroxy-amino)-methyl]-decanoic acid [1-((S)-dimethyl-carbamoyl)-2,2-dimethyl-propyl]-amide] | 50 nM
CC[C@H](CN(O)C=O)C(=O)N[C@H](C(=O)N(C)C)C(C)(C)C [(S)-2-{(R)-2-[(Formyl-hydroxy-amino)-methyl]-butyrylamino}-3,3,N,N-tetramethyl-butyramide] | 70 nM
CC(C)[C@H](CN(O)C=O)C(=O)N[C@H](C(=O)N(C)C)C(C)(C)C [(R)-N-((S)-1-Dimethylcarbamoyl-2,2-dimethyl-propyl)-2-[(formyl-hydroxy-amino)-methyl]-3-methyl-butyramide] | 50 nM
CCCCCC[C@H](CN(O)C=O)C(=O)N[C@H](C(=O)N(C)C)C(C)(C)C [(R)-2-[(Formyl-hydroxy-amino)-methyl]-octanoic acid ((S)-1-dimethylcarbamoyl-2,2-dimethyl-propyl)-amide] | 30 nM
CN(C)C(=O)[C@@H](NC(=O)[C@@H](CN(O)C=O)C1CCCC1)C(C)(C)C [(S)-2-[(R)-2-Cyclopentyl-3-(formyl-hydroxy-amino)-propionylamino]-3,3,N,N-tetramethyl-butyramide] | 20 nM
CN(C)C(=O)[C@@H](NC(=O)[C@H](Cc1ccccc1)CN(O)C=O)C(C)(C)C [(S)-2-[(R)-2-Benzyl-3-(formyl-hydroxy-amino)-propionylamino]-3,3,N,N-tetramethyl-butyramide] | 20 nM
CCSC[C@H](CN(O)C=O)C(=O)N[C@H](C(=O)N(C)C)C(C)(C)C [(S)-2-[(R)-2-Ethylsulfanylmethyl-3-(formyl-hydroxy-amino)-propionylamino]-3,3,N,N-tetramethyl-butyramide] | 20 nM
CCCCC[C@H](CN(O)C=O)C(=O)N[C@H](C(=O)N(C)C)C(C)(C)C [(R)-2-[(Formyl-hydroxy-amino)-methyl]-heptanoic acid ((S)-1-dimethylcarbamoyl-2,2-dimethyl-propyl)-amide] | 10 nM
C[C@H](CN(O)C=O)C(=O)N[C@H](C(=O)N(C)C)C(C)(C)C [(S)-2-[(R)-3-(Formyl-hydroxy-amino)-2-methyl-propionylamino]-3,3,N,N-tetramethyl-butyramide] | 100 nM
CC(C)C[C@H](CN(O)C=O)C(=O)N[C@H](C(=O)N(C)C)C(C)(C)C [(R)-2-[(Formyl-hydroxy-amino)-methyl]-4-methyl-pentanoic acid ((S)-1-dimethylcarbamoyl-2,2-dimethyl-propyl)-amide] | 10 nM
CCCCCCC[C@H](CN(O)C=O)C(=O)N[C@H](C(=O)N(C)C)C(C)(C)C [(R)-2-[(Formyl-hydroxy-amino)-methyl]-nonanoic acid ((S)-1-dimethylcarbamoyl-2,2-dimethyl-propyl)-amide] | 40 nM
